Measured values taken from PMC9916616, “TZD-Based Hybrid Molecules Act as Dual Anti-Mycobacterium tuberculosis and Anti-Toxoplasma gondii Agents” (International Journal of Molecular Sciences, 2023).
≈ marks a conversion by molar mass, not a printed value. Read-outs that look alike come from different tables or passages of the source.

Legend:
[1] = tested on: Hs27 cells
[2] = tested on: Toxoplasma gondii RH-GFP tachyzoites; assay: In vitro anti-Tg assay (RH-GFP tachyzoite proliferation in Hs27 cells); assay type: cell-based; conditions: for SI (selectivity index, CC30/IC50Tg): CC30 in Hs27 / IC50Tg; for IC50: Toxoplasma gondii, HS27, 96 h, read-out: IC50Tg in Tg-Infected Hs27 Cells
[3] = tested on: T98G glioblastoma cells; assay: Cytotoxicity against human glioblastoma T98G cells (MTT); assay type: cell-based; conditions: 24 h, read-out: IC50 against T98G cells
Experimental: The T98G glioblastoma cells (ATTC, CRL-1690, Manassas, VA, USA) were cultured in Dulbecco’s Modified Eagle Medium (DMEM, high glucose) (Sigma Aldrich, St. Louis, MO, USA), supplemented with 10% heat-inactivated FBS, penicillin (100 U/mL), and streptomycin (100 U/mL) (Sigma Aldrich, St. Louis, MO, USA). Cells were maintained in a humidified atmosphere of 5% CO2 and 95% air at 37 °C. Stock solutions of the investigated compounds (2, 7, 8 and 10, and temozolomide) were prepared by dissolving solid substances in sterile DMSO. T98G glioblastoma cells were seeded into 96-well sterile plates at a density of 4 × 10^4 cells/mL. After 24 h of incubation, the medium was removed from each well, and then the cells were incubated for the next 24 h with different concentrations of the investigated compounds ([…]) in the medium that contained 2% FBS. Viability of the T98G cells was evaluated using MTT assay. In brief, after 24 h of incubation of the cells with varying concentrations, 15 μL of MTT solution (5 mg/mL) was added to each well. After 3 h of incubation, […] (per well) of 10% SDS buffer solution was added. After overnight incubation, the absorbance was measured at 570 nm using a microplate reader (Epoch, BioTek Instruments, Winooski, VT, USA). Experiments were repeated three times, and the measurements in each experiment were run in quadruplicate. Viability of the investigated cells was expressed as % of the viability of the untreated cells.

[4] = in vitro; assay type: in vitro ADME; conditions: PAMPA, pH 7.4
Experimental: BBB permeability of 2, 7, 8, and 10 was investigated using a parallel artificial membrane permeability assay (PAMPA) method. The PAMPA system, which consisted of a 96-well microfilter plate, was divided into the following two chambers: a donor at the bottom and an acceptor at the top, separated by a 120 µm thick microfilter disc coated with BBB lipid solution (Pion, Inc., Billerica, MA, USA). The solutions of 2, 7, 8, and 10 were prepared in dimethylsulfoxide (DMSO) at 4 mg/mL concentration, and then diluted with Prisma buffer (pH = 7.4) to obtain the donor drug solution with the final nominal concentration of 20 µg/mL. Then, 180 µL of the donor solution was added to the donor wells. Subsequently, each filter membrane of the top plate was coated with 5 µL of BBB-1 lipid solution (Pion Inc., Billerica, MA, USA) and the acceptor well was filled with 200 µL of brain sink buffer (BSB). The acceptor plate and the donor plate were sandwiched together and incubated at 37 °C for 180 min.
The permeability coefficient value (Pe) was calculated using the following equation: Pe=−ln (1−CA/Cequilibrium)/S×(1/VD+1/VA)×t where VD—donor volume, VA—acceptor volume, Cequilibrium—equilibrium concentration, Cequilibrium=CD×VD+CA×VA/VD+VA , CD—donor concentration, CA—acceptor concentration, S—membrane area and t—incubation time (in seconds).

[5] = tested on: human red blood cells; assay: Hemolytic activity determination; assay type: cell-based
Experimental: Human red blood cell (RBC) concentrate was obtained from the Regional Blood Donation and Transfusion Centre (Lublin, Poland). The RBC concentrate (5 mL) was washed three times with sterile PBS and centrifuged at 500× g for 3 min. The obtained pellet was resuspended using sterile PBS in order to obtain a 2% suspension of RBCs, which was subsequently mixed with 1 mL of different concentrations (i.e., […]) of 2, 7, 8, and 10. The mixtures were incubated at 37 °C for 30 min and centrifuged at 1400× g for 10 min. The amount of free hemoglobin in the supernatants was measured spectrophotometrically at 405 nm. Negative and positive controls were performed by incubating RBCs with sterile PBS and 0.1% Triton-X, respectively. Each experiment was run in triplicate.

[6] = tested on: Danio rerio embryos and larvae; assay: Fish embryo toxicity test (FET); assay type: in vivo; conditions: for Toxicity to zebrafish embryos and larvae: 5 µg/mL and 10 µg/mL, within 96 h of observation; for Mortality and deformity / Concentration at which the impact on occurrence of deformations was noticeable: zebrafish, 96 h exposure; for Mortality and deformity: concentrations above 50 μg/mL
Experimental: Danio rerio (Experimental Medicine Centre, Medical University of Lublin, Poland) were maintained at 28 ± 0.5 °C, under a 14/10 h light/dark cycle with standard aquaculture conditions. After mating, the fertilized eggs were collected within 30 min. Embryos were reared in E3 embryo medium (pH 7.1–7.3; […]) in an incubator (IN 110 Memmert GmbH, Germany) at 28 ± 0.5 °C. The eggs were examined to remove the unfertilized, coagulated and damaged samples. The FET test was performed based on the OECD Guidelines for the Testing Chemicals, Test No. 236. TZD hybrids were weighted, dissolved in DMSO as stock solutions, and diluted in E3 embryo medium to the indicated treatment concentrations. The stock of TZD hybrids and dilutions in E3 embryo medium were freshly prepared before testing. Embryos were incubated at each concentration (5, 10, 15, 25, 50, 75; 100 μg/mL) of TZD hybrids. The final DMSO concentration had no detectable effects on zebrafish development. The test was conducted in 24-well plates, with 5 embryos per well and 10 per group, in triplicate. The covered plates were kept at 28 ± 0.5 °C under the light/dark conditions (12 h/12 h). Embryonic viability, and the malformation rates of each treatment group were recorded at 24, 48, 72, and 96 hpf. All experiments were conducted in accordance with the National Institute of Health Guidelines for the Care and Use of Laboratory Animals and the European Community Council Directive for the Care and Use of Laboratory Animals (2010/63/EU). For the experiments on larvae up to 5 dpf, the agreement of the Local Ethical Commission is not required.

[7] = concentration reducing Hs27 viability by 30%, MTT, 24 h

Structure (SMILES)	CC30 in Hs27 Cells [1, 7] [µg/mL]	SI (selectivity index, CC30/IC50Tg) [2]	IC50 [2] [µg/mL]	CC30 in Hs27 Cells ([1]; human) [µg/mL]	IC50 [3] [µg/mL]	Papp at 180 min, 20 µg/mL [4] [×10⁻⁶ cm/s]	Hemolytic activity (in words) [5]	Toxicity to zebrafish embryos and larvae [6]	Mortality and deformity [6] [%]	Concentration at which the impact on occurrence of deformations was noticeable [6] [ng/mL]
O=C1C(O)=C([C@H]2CC[C@H](c3ccc(Cl)cc3)CC2)C(=O)c2ccccc21 [ATO, atovaquone, reference compound]	54.26 (≈ 148 µM)	227.55	0.24 (≈ 0.654 µM)							
CCc1nc(N)nc(N)c1-c1ccc(Cl)cc1 [PYR, pyrimethamine, reference compound]	49.62 (≈ 200 µM)	17.38	2.86 (≈ 11.5 µM)							
Nc1ccc(S(=O)(=O)Nc2ncccn2)cc1 [SDZ, sulfadiazine, reference compound]		1.78	1250 (≈ 5010 µM)	2230.61 (≈ 8910 µM)						
COc1cc(Cc2cnc(N)nc2N)cc(OC)c1OC [TRI, trimethoprim, reference compound]		5.53	14.8 (≈ 50.9 µM)	81.82 (≈ 282 µM)						
Cn1nnc2c(C(N)=O)ncn2c1=O [Temozolomide, temozolomide, reference compound]					> 100					
O=C(/C=C1\SC(=O)NC1=O)Oc1cccc(/C=N/NC(=O)c2ccncc2)c1 [compound 1]	128.27 (≈ 324 µM)	9.92	12.9 (≈ 32.6 µM)							
O=C(CC1SC(=O)NC1=O)Oc1ccc(/C=N/NC(=O)c2ccncc2)cc1 (centres unmarked) [compound 2]	>995.98	>118.93	8.37 (≈ 21 µM)		19.4 ± 1.13 (≈ 48.6 µM)	12.4 ± 1.02	no specific hemolytic activity	not toxic	100	
COc1cc(/C=N/NC(=O)c2ccncc2)ccc1OC(=O)CC1SC(=O)NC1=O (centres unmarked) [compound 3]	>1071.05	>48.35	22.1 (≈ 51.7 µM)							
CCOc1cc(/C=N/NC(=O)c2ccncc2)ccc1OC(=O)CC1SC(=O)NC1=O (centres unmarked) [compound 4]	654.42 (≈ 1480 µM)	16.77	39 (≈ 88.2 µM)							
O=C(CC1SC(=O)NC1=O)Oc1ccc(/C=N/NC(=O)c2ccncc2)cc1Cl (centres unmarked) [compound 5]	>1082.10	>44.48	24.3 (≈ 56.2 µM)							
O=C(CC1SC(=O)NC1=O)Oc1ccc(/C=N/NC(=O)c2ccncc2)cc1Br (centres unmarked) [compound 6]	>1193.22	>43.81	27.2 (≈ 57.1 µM)							
NC(=S)N/N=C/c1ccc(OC(=O)CC2SC(=O)NC2=O)cc1 (centres unmarked) [compound 7]	>880.97	>148.28	5.94 (≈ 16.9 µM)		> 100	23.1 ± 0.71	no specific hemolytic activity	not toxic	100	25000
NC(=S)N/N=C/c1ccc(OC(=O)CC2SC(=O)NC2=O)c(Cl)c1 (centres unmarked) [compound 8]	>967.09	>110.67	8.74 (≈ 22.6 µM)		> 100	26.1 ± 1.3	no specific hemolytic activity	not toxic	100	25000
NC(=S)N/N=C/c1ccc(OC(=O)CC2SC(=O)NC2=O)c(Br)c1 (centres unmarked) [compound 9]	>1078.21	>87.75	12.3 (≈ 28.5 µM)							
NC(=S)N/N=C/c1ccc(OC(=O)/C=C2\SC(=O)NC2=O)cc1 [compound 10]	312.27 (≈ 891 µM)	58.71	5.32 (≈ 15.2 µM)		94.6 ± 6.16 (≈ 270 µM)	24.4 ± 0.93	no specific hemolytic activity	not toxic	100	
COc1cc(/C=N/NC(N)=S)ccc1OC(=O)/C=C1\SC(=O)NC1=O [compound 11]	>951.00	>78.81	12.1 (≈ 31.7 µM)							
NC(=S)N/N=C/c1ccc(OC(=O)/C=C2\SC(=O)NC2=O)c(Cl)c1 [compound 12]	>962.05	>94.59	10.2 (≈ 26.4 µM)							
